Results taken from article PMC12859765, “Phosphatidylcholine with C26:0 moiety, a precursor of a diagnostic marker for X-ALD, is synthesized by LPLAT10/LPEAT2” (Journal of Lipid Research, 2025).

Biological target: T1, LPLAT8/LPCAT1 (Homo sapiens, UniProt Q8NF37)
T1 construct: transiently expressed in HEK 293T; 100,000 g membrane fraction
T1 sequence (Q8NF37 1-534): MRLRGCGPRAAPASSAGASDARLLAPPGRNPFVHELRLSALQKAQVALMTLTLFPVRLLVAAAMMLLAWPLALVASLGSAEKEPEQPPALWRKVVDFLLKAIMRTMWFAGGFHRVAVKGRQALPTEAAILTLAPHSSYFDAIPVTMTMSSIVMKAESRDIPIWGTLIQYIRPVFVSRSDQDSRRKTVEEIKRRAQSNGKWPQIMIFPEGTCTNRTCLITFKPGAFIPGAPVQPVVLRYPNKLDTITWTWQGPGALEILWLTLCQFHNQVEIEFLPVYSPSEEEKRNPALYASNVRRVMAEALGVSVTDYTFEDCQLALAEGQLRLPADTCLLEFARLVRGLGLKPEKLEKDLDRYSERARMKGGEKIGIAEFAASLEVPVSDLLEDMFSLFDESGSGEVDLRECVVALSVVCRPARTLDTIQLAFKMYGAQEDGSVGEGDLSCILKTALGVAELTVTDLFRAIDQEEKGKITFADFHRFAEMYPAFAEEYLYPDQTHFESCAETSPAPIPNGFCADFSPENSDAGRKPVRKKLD
Test: LC-MS/MS acyltransferase assay, membrane fraction
Type: biochemical
Conditions: pH 7.4, 37 °C

SMILES | LC-MS/MS acyltransferase assay, membrane fraction (10 µM acyl-CoA, acceptor 2-16:0-d31-LPC 20 µM) | LC-MS/MS acyltransferase assay, membrane fraction (donor C26:0-CoA 10 µM, LPC 20 µM, labelled compound)
CCCCCCCCCCCCCCCCCCCCCCCCCC(=O)SCCNC(=O)CCNC(=O)[C@H](O)C(C)(C)COP(=O)(O)OP(=O)(O)OC[C@H]1O[C@@H](n2cnc3c(N)ncnc32)[C@H](O)[C@@H]1OP(=O)(O)O [C26:0-CoA] | LPLAT8/LPCAT1, which has very high homology with LPLAT10 in terms of amino acid sequence, showed slight activity | –
CCCCCCCCCCCCCCCC(=O)O[C@H](CO)COP(=O)([O-])OCC[N+](C)(C)C [2-16:0-d31-LPC] | – | C26:0-CoA transfer activity was not significantly different between 2-acyl-LPC and 1-acyl-LPC
